Measurements: patent US10212936B2, “Molecules having pesticidal utility, and intermediates, compositions, and processes, related thereto” (priority 2014, dated 2019)

Legend:
Format in all cases: in vivo
[1] = system: Yellow Fever Mosquito (Aedes aegypti, AEDSAE); test: Bioassay on Yellow Fever Mosquito (YFM) larvae, 96-well plate; conditions: about 1 day-old larvae, 4000 ppm DMSO master plate diluted, graded after 3 days
How it was run: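 Compounds from 4000 ppm DMSO master stocks, diluted in 90:10 water:acetone, dispensed into wells and infested with about 1-day-old Aedes aegypti larvae in liver-powder water. Six replicate plates, covered and held at room temperature for 3 days, then each well scored for mortality.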

[2] = system: Cabbage Looper (Trichoplusia ni, TRIPNI); test: Bioassay on Cabbage Looper (CL), 128-well diet tray assay; conditions: 168 h, 50 μg/cm^2 on artificial diet, second instar larvae, five to seven days, 25° C., read-out: CL % Control (or Mortality) rating
How it was run: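 Diet-tray test with one to five second-instar larvae per well on artificial diet treated with 50 μg/cm^2 compound (in 90:10 acetone-water), dried, eight wells per molecule. Held 25 °C, 14:10 light-dark for five to seven days; percent mortality averaged over the eight wells.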

[3] = system: Green Peach Aphid (Myzus persicae, MYZUPE); test: Bioassay on Green Peach Aphid (GPA), foliar spray on cabbage seedlings; conditions: 72 h, 200 ppm foliar spray on cabbage seedlings, three days, Abbott corrected % control, read-out: GPA % Control (or Mortality) rating
Experimental: Example B: Bioassays on Green Peach Aphid (Myzus persicae, MYZUPE) (“GPA”)
Certain molecules disclosed in this document were tested against GPA using procedures described in the following example. In the reporting of the results, the “GPA Rating Table” was used (See Table Section).
Cabbage seedlings grown in 3-inch pots, with 2-3 small (3-5 cm) true leaves, were used as test substrate. The seedlings were infested with 20-50 GPA (wingless adult and nymph stages) one day prior to chemical application. Four pots with individual seedlings were used for each treatment. Test molecules (2 mg) were dissolved in 2 mL of acetone/methanol (1:1) solvent, forming stock solutions of 1000 ppm test molecule. The stock solutions were diluted 5× with 0.025% Tween 20 in water to obtain the solution at 200 ppm test molecule. A hand-held aspirator-type sprayer was used for spraying a solution to both sides of […] leaves until runoff. Reference plants (solvent check) were sprayed with the diluent only containing 20% by volume of acetone/methanol (1:1) solvent. Treated plants were held in a holding room for three days at approximately 25° C. and ambient relative humidity (RH) prior to grading. Evaluation was conducted by counting the number of live aphids per plant under a microscope. Percent Control was measured by using Abbott's correction formula (W. S. Abbott, “A Method of Computing the Effectiveness of an Insecticide” J. Econ. Entomol. 18 (1925), pp. 265-267) as follows. Corrected % Control=100*(X−Y)/X • where • X=No. of live aphids on solvent check plants and • Y=No. of live aphids on treated plants
The results are indicated in the table entitled “Table ABC: Biological Results” (See Table Section).

[4] = system: Beet Armyworm (Spodoptera exigua, LAPHEG); test: Bioassay on Beet Armyworm (BAW), 128-well diet tray assay; conditions: 168 h, 50 μg/cm^2 on artificial diet, second instar larvae, five to seven days, 25° C., read-out: BAW % Control (or Mortality) rating
How it was run: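 Second instar larvae, one to five per well, placed on artificial diet treated with 50 μg/cm^2 compound (in 90:10 acetone-water) and dried; eight wells per compound. Held at 25° C, 14:10 light-dark, five to seven days. Percent mortality recorded per well and averaged.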

Cc1ccc(-n2nccc2NC(=O)Nc2ccc(-c3ncn(-c4ccc(OC(F)(F)F)cc4)n3)cc2)c(C)c1 [F9, 1-(1-(2,4-Dimethylphenyl)-1H-pyrazol-5-yl)-3-(4-(1-(4-(trifluoromethoxy)phenyl)-1H-1,2,4-triazol-3-yl)phenyl)urea]
YFM % Control (or Mortality) rating [1]: A (80-100)
mortality at 50 µg/cm2 [2]: 50 to 100%
mortality at 200 ppm [3]: 0 to 80%
mortality at 50 µg/cm2 [4]: 50 to 100%

Cc1ccc(F)cc1-n1nccc1NC(=O)Nc1ccc(-c2ncn(-c3ccc(OC(F)(F)F)cc3)n2)cc1 [F5, 1-(1-(5-Fluoro-2-methylphenyl)-1H-pyrazol-5-yl)-3-(4-(1-(4-(trifluoromethoxy)phenyl)-1H-1,2,4-triazol-3-yl)phenyl)urea]
YFM % Control (or Mortality) rating [1]: A (80-100)
mortality at 50 µg/cm2 [2]: 50 to 100%
mortality at 200 ppm [3]: 0%
mortality at 50 µg/cm2 [4]: 50 to 100%

Cc1ccc(F)cc1-n1nccc1NC(=O)Nc1ccc(-c2ncn(-c3ccc(OC(F)(F)C(F)(F)F)cc3)n2)cc1 [F16, 1-(1-(5-Fluoro-2-methylphenyl)-1H-pyrazol-5-yl)-3-(4-(1-(4-(perfluoroethoxy)phenyl)-1H-1,2,4-triazol-3-yl)phenyl)urea]
YFM % Control (or Mortality) rating [1]: A (80-100)
mortality at 50 µg/cm2 [2]: 50 to 100%
mortality at 200 ppm [3]: 0%
mortality at 50 µg/cm2 [4]: 50 to 100%

Cc1cc(C)c(-n2nccc2NC(=O)Nc2ccc(-c3ncn(-c4ccc(OC(F)(F)C(F)(F)F)cc4)n3)cc2)c(C)c1 [F18, 1-(1-Mesityl-1H-pyrazol-5-yl)-3-(4-(1-(4-(perfluoroethoxy)phenyl)-1H-1,2,4-triazol-3-yl)phenyl)urea]
YFM % Control (or Mortality) rating [1]: A (80-100)
mortality at 50 µg/cm2 [2]: 50 to 100%
mortality at 200 ppm [3]: 0 to 80%
mortality at 50 µg/cm2 [4]: 50 to 100%

Cc1ccc(C)c(-n2nccc2NC(=O)Nc2ccc(-c3ncn(-c4ccc(OC(F)(F)F)cc4)n3)cc2)c1 [F7, 1-(1-(2,5-Dimethylphenyl)-1H-pyrazol-5-yl)-3-(4-(1-(4-(trifluoromethoxy)phenyl)-1H-1,2,4-triazol-3-yl)phenyl)urea]
YFM % Control (or Mortality) rating [1]: A (80-100)
mortality at 50 µg/cm2 [2]: 50 to 100%
mortality at 200 ppm [3]: 0 to 80%
mortality at 50 µg/cm2 [4]: 50 to 100%

Cc1cc(Cl)ccc1-n1nccc1NC(=O)Nc1ccc(-c2ncn(-c3ccc(OC(F)(F)F)cc3)n2)cc1 [F3, 1-(1-(4-Chloro-2-methylphenyl)-1H-pyrazol-5-yl)-3-(4-(1-(4-(trifluoromethoxy)phenyl)-1H-1,2,4-triazol-3-yl)phenyl)urea]
YFM % Control (or Mortality) rating [1]: A (80-100)
mortality at 50 µg/cm2 [2]: 50 to 100%
mortality at 200 ppm [3]: 0%
mortality at 50 µg/cm2 [4]: 50 to 100%
